Data published in patent publication US20240109865A1, “INDAZOLE COMPOUNDS AS KINASE INHIBITORS” (TYRA BIOSCIENCES, INC., priority 2020, published 2024).

Columns and labels:
[1] = target: FGFR3-BAIAP2L1 Ba/F3 cells (Homo sapiens, UniProt P22607); experiment: Ba/F3 cell viability assay (CellTiter-Glo 2.0), FGFR3-BAIAP2L1 Ba/F3; assay type: cell-based; conditions: for Ba/F3 FGFR1/FGFR3 Selectivity: FGFR3 > FGFR1 selectivity ratio in Ba/F3 FGFR fusion cell based assays; for IC50: read-out: Ba/F3 Cells FGFR3 (IC50 nM), FGFR3-BAIAP2L1 Ba/F3 cells, 48 hours, Cell Titer Glo 2.0
Chain of FGFR3-BAIAP2L1 Ba/F3 cells (P22607 23-806 limits assumed, change not shown): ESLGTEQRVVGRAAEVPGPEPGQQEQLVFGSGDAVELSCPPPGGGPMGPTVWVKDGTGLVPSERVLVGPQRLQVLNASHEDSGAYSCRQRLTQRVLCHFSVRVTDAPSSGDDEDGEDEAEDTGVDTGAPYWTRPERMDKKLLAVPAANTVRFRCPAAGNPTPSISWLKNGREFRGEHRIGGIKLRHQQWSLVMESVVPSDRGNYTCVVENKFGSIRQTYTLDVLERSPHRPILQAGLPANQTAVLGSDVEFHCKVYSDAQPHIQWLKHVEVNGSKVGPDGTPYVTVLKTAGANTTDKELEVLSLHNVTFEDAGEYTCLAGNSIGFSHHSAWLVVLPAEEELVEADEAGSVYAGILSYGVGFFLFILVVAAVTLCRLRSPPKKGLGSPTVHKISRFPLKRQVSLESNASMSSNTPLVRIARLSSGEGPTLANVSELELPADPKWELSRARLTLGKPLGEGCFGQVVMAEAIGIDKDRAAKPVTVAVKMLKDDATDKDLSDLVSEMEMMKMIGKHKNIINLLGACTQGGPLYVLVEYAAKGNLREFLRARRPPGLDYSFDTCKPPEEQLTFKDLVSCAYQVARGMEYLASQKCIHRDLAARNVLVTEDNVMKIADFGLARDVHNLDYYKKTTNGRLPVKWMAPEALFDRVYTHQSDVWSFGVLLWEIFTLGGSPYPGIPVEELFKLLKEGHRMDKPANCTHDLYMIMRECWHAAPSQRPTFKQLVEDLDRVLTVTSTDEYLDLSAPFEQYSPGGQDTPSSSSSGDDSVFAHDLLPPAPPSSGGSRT
Text: (§1) Experimental Purpose: Recombinant kinase fusions are transduced into parental Ba/F3, which becomes dependent upon this constitutive kinase activity for IL3-independent survival. Inhibition of kinase activity leads to cell death, which is monitored using CellTiter-Glo® 2.0 (Promega) which measures intracellular ATP concentration that in turn serves as a marker for viability. FGFR1-BCR Ba/F3 and FGFR3-BAIAP2L1 Ba/F3 were obtained from Advanced Cellular Dynamics (Seattle, WA)
(§2) Cell Viability Assay Procedure: Cell Titer-Glo® 2.0 Luminescent cell viability assay reagent was purchased from Promega (Madison, WI). FGFR1-BCR Ba/F3 and FGFR3-BAIAP2L1 Ba/F3 cells were cultured in RPMI1640 media supplemented with 10% fetal bovine serum. Cultures were maintained at 37° C. in a humidified atmosphere of 5% C02 and 95% air.
(§3) Cells were plated in 96-well clear bottom/white plates (Corning #3903) at 10,000 cells/well in 100 μl of media, incubated overnight. The next day, test compound DMSO stock solutions were made at 10 mM and 2 μM final concentration. Compounds were then added to cells in a 9-dose, 10-fold dilution series starting at 30 μM with an HP 300e Digital Dispenser (each dose was applied in triplicate). DMSO was backfilled to each well up to 301 nL total volume of test compound+DMSO, and a total of 301 nL DMSO was added to a control/no test compound well in triplicate. The cells in cell culture plates were incubated with the compounds at 37° C. and 5% C02 for 48 hours. Then 50 μl of Cell Titer Glo 2.0 reagent was added to each well of the cell culture plates. The contents were covered from light and mixed on an orbital shaker at room temperature for 10 min. Luminescence was recorded by a Synergy H1 Microplate Reader (Biotek, Winooski, VT). Cells were assessed as a percentage of DMSO only treated control cells. Curves were plotted and IC50 values were calculated using the GraphPad Prism 8 program based on a sigmoidal dose-response equation (4 parameter).

[2] = target: FGFR1-BCR Ba/F3 cells (Homo sapiens, UniProt P11362); experiment: Ba/F3 cell viability assay (CellTiter-Glo 2.0), FGFR1-BCR Ba/F3; assay type: cell-based; conditions: read-out: Ba/F3 Cells FGFR1 (IC50 nM), 48 hours, Cell Titer Glo 2.0
Chain of FGFR1-BCR Ba/F3 cells (P11362 22-822 limits assumed, change not shown): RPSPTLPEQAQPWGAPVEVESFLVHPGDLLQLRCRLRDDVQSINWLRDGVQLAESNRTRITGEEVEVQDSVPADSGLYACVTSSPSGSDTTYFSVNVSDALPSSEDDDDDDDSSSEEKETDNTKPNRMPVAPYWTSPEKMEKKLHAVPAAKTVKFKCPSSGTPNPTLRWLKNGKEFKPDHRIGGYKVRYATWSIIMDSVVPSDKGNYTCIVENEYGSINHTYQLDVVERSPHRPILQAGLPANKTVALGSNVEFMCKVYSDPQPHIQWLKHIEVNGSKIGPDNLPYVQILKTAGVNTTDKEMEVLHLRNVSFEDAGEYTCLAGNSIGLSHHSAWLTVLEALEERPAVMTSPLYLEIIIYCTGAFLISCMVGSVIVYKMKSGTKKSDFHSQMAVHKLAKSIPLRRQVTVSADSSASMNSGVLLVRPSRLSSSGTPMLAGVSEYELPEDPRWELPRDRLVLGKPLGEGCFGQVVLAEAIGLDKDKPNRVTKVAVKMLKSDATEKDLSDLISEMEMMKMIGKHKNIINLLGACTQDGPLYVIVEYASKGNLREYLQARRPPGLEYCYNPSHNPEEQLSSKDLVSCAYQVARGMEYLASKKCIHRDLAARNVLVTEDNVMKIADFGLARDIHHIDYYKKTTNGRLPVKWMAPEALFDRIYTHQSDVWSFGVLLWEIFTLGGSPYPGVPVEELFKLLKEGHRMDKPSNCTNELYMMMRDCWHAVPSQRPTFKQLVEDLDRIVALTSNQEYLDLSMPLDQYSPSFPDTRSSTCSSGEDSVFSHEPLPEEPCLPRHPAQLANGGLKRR
Text: as §1, §2, §3

[3] = target: FGFR1 (Homo sapiens (Human), UniProt P11362); experiment: Kinase assay, binding constants (Kd), kinase-tagged T7 phage, qPCR
Chain of FGFR1 (P11362 22-822): as the sequence (P11362 22-822 limits assumed, change not shown) above
How it was run: (§4)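 Competition binding: T7 phage-tagged kinase + biotin-ligand beads + compound (11 pts, 3-fold, 0.9% DMSO). Elution 30 min RT with free ligand; qPCR quantitation. Kd via Hill fit, slope −1.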

[4] = target: FGFR3 (V555M) (Homo sapiens (Human), UniProt P22607, V555M); experiment: as above; conditions: V555M mutant
Chain of FGFR3 (V555M) (P22607 23-806 V555M): as the sequence (P22607 23-806 limits assumed, change not shown) above, with V533M counted along it
How it was run: as §4

[5] = target: FGFR3 (Homo sapiens (Human), UniProt P22607); experiment: as above
Chain of FGFR3 (P22607 23-806): as the sequence (P22607 23-806 limits assumed, change not shown) above
How it was run: as §4

[6] = target: FGFR4 (Homo sapiens (Human), UniProt P22455); experiment: as above
Chain of FGFR4 (P22455 22-802): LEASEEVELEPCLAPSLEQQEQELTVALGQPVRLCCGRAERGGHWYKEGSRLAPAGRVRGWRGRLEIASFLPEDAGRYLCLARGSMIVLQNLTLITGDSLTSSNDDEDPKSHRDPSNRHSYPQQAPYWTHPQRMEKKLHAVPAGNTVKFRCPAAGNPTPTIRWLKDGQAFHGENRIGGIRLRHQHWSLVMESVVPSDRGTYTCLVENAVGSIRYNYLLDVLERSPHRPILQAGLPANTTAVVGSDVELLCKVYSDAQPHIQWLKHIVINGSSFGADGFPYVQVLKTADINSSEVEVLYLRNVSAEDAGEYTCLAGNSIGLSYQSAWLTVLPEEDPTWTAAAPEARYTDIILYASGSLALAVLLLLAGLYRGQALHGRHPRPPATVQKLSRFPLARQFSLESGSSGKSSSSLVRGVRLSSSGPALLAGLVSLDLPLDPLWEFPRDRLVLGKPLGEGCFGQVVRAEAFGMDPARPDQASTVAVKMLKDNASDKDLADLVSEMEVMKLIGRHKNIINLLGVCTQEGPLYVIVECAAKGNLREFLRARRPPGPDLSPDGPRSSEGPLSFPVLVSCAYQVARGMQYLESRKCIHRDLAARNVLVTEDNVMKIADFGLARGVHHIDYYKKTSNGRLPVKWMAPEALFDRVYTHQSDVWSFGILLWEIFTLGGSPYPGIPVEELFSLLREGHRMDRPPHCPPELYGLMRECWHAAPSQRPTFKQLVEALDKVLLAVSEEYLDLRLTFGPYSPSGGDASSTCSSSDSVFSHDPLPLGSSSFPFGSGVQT
How it was run: as §4

[7] = target: FGFR2 (Homo sapiens (Human), UniProt P21802); experiment: as above
Chain of FGFR2 (P21802 22-821): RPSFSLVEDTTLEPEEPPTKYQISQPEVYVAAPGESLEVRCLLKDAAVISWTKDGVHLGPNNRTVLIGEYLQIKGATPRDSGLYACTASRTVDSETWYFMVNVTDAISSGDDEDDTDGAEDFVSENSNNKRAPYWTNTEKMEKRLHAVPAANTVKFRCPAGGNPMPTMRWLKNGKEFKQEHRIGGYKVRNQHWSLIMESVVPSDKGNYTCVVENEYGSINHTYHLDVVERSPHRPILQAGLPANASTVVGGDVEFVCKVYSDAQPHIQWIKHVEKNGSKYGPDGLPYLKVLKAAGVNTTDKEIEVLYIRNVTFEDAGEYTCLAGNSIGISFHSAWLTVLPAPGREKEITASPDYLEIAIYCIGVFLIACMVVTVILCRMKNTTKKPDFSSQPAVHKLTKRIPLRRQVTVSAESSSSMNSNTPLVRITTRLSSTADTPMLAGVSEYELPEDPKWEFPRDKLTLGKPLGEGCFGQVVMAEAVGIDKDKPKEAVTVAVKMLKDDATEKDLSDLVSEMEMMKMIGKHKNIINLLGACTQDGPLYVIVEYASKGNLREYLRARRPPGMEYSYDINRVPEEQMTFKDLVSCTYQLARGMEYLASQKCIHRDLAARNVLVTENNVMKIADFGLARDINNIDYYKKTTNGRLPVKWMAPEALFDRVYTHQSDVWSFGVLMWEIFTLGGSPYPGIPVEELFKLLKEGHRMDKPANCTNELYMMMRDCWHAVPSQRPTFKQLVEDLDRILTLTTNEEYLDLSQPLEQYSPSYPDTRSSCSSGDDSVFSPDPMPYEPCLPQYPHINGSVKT
How it was run: as §4

Row | SMILES | Ba/F3 FGFR1/FGFR3 Selectivity [1] | IC50 [1] [nM] | IC50 [2] [nM] | Kd [3] [nM] | Kd [4] [nM] | Kd [5] [nM] | Kd [6] [nM] | Kd [7] [nM]
1 | CC(C)OC(=O)N1CCCC2(C1)CN(c1ncc(-c3n[nH]c4ccc(O[C@H](C)c5c(Cl)cncc5Cl)cc34)cn1)C2 [Example 135, isopropyl 2-[5-[5-[(1R)-1-(3,5-dichloro-4-pyridyl)ethoxy]-1H-indazol-3-yl]pyrimidin-2-yl]-2,8-diazaspiro[3.5]nonane-8-carboxylate] | 9 | 100 to 300 | > 300 | > 300 | 1 to 20 | 20 to 100 | 1 to 20 | > 300
2 | C[C@@H](Oc1ccc2[nH]nc(-c3cnc(N4CCC5(CCCN5)CC4)nc3)c2c1)c1c(Cl)cncc1Cl [Example 56, 8-[5-[5-[(1R)-1-(3,5-dichloro-4-pyridyl)ethoxy]-1H-indazol-3-yl]pyrimidin-2-yl]-1,8-diazaspiro[4.5]decane] | 5 | 20 to 100 | > 300 | 1 to 20 | 1 to 20 | 1 to 20 | 1 to 20 | 20 to 100
3 | C[C@@H](Oc1ccc2[nH]nc(-c3cnn(C4CCS(=O)(=O)CC4)c3)c2c1)c1c(Cl)cncc1Cl [Example 114, 4-[4-[5-[(1R)-1-(3,5-dichloro-4-pyridyl)ethoxy]-1H-indazol-3-yl]pyrazol-1-yl]thiane 1,1-dioxide] | 12 | 20 to 100 | 100 to 300 | 1 to 20 | 1 to 20 | 1 to 20 | 20 to 100 | 1 to 20
4 | C[C@@H](Oc1ccc2[nH]nc(-c3ccc(Cl)nc3)c2c1)c1c(Cl)cncc1Cl [Example 18, 3-(6-Chloro-3-pyridyl)-5-[(1R)-1-(3,5-dichloro-4-pyridyl)ethoxy]-1H-indazole] | 21 | 20 to 100 | > 300 | 20 to 100 | 1 to 20 | 1 to 20 | 1 to 20 | 20 to 100
5 | C[C@@H](Oc1ccc2[nH]nc(-c3cnc(N4CC[C@H](O)C4)c(C#N)c3)c2c1)c1c(Cl)cncc1Cl [Example 293, 5-[5-[(1R)-1-(3,5-dichloro-4-pyridyl)ethoxy]-1H-indazol-3-yl]-2-[(3S)-3-hydroxypyrrolidin-1-yl]pyridine-3-carbonitrile] | – | – | – | 20 to 100 | 1 to 20 | 1 to 20 | 1 to 20 | 20 to 100
6 | COc1cc2[nH]nc(-c3cnc(N4CC5(COC5)C4)c(C#N)c3)c2cc1O[C@H](C)c1c(C)cnnc1C [Example 218, (R)-5-(5-(1-(3,5-dimethylpyridazin-4-yl)ethoxy)-6-methoxy-1H-indazol-3-yl)-2-(2-oxa-6-azaspiro[3.3]heptan-6-yl)nicotinonitrile] | – | – | – | 20 to 100 | 1 to 20 | 20 to 100 | 1 to 20 | 20 to 100
7 | C[C@@H](Oc1ccc2[nH]nc(-c3cnc(N4CC5(C4)CN(S(C)(=O)=O)C5)c(CN(C)C)c3)c2c1)c1c(Cl)cncc1Cl [Example 356, (R)-1-(5-(5-(1-(3,5-dichloropyridin-4-yl)ethoxy)-1H-indazol-3-yl)-2-(6-(methylsulfonyl)-2,6-diazaspiro[3.3]heptan-2-yl)pyridin-3-yl)-N,N-dimethylmethanamine] | – | – | – | > 300 | 100 to 300 | > 300 | 20 to 100 | > 300
8 | C[C@@H](Oc1ccc2[nH]nc(-c3ccc(N4CC5(CCN(S(C)(=O)=O)CC5)OC4=O)nc3)c2c1)c1c(Cl)cncc1Cl [Example 76, 3-[5-[5-[(1R)-1-(3,5-dichloro-4-pyridyl)ethoxy]-1H-indazol-3-yl]-2-pyridyl]-8-methylsulfonyl-1-oxa-3,8-diazaspiro[4.5]decan-2-one] | – | – | – | 20 to 100 | 1 to 20 | 1 to 20 | 1 to 20 | 20 to 100
9 | COc1cc(-c2n[nH]c3ccc(O[C@H](C)c4c(C)cnnc4C)cc23)cnc1N1CCN2C(=O)NCC2C1 (stereo partly drawn) [Example 328, 7-(5-(5-((R)-1-(3,5-dimethylpyridazin-4-yl)ethoxy)-1H-indazol-3-yl)-3-methoxypyridin-2-yl)hexahydroimidazo[1,5-a]pyrazin-3(2H)-one] | – | – | – | 100 to 300 | 20 to 100 | 100 to 300 | 1 to 20 | 100 to 300
10 | CCS(=O)(=O)N1CCCC2(CN(c3ccc(-c4n[nH]c5ccc(O[C@H](C)c6c(C)cnnc6C)cc45)cn3)C2)C1 [Example 186, 5-[(1R)-1-(3,5-dimethylpyridazin-4-yl)ethoxy]-3-[6-(8-ethylsulfonyl-2,8-diazaspiro[3.5]nonan-2-yl)-3-pyridyl]-1H-indazole] | – | – | – | 100 to 300 | 1 to 20 | 1 to 20 | 20 to 100 | 20 to 100
11 | C[C@@H](Oc1ccc2[nH]nc(-c3ccc(N4CC5(COC5)C4)nc3)c2c1)c1c(Cl)cnc(F)c1Cl [Example 203, 6-[5-[5-[(1R)-1-(3,5-dichloro-2-fluoro-4-pyridyl)ethoxy]-1H-indazol-3-yl]-2-pyridyl]-2-oxa-6-azaspiro[3.3]heptane] | – | – | – | 20 to 100 | 1 to 20 | 1 to 20 | 1 to 20 | 1 to 20
12 | Cc1cnnc(C)c1[C@@H](C)Oc1ccc2[nH]nc(-c3cnc(N4CCC5(CC4)CCS(=O)(=O)C5)nc3)c2c1 [Example 152, 8-[5-[5-[(1R)-1-(3,5-dimethylpyridazin-4-yl)ethoxy]-1H-indazol-3-yl]pyrimidin-2-yl]-2λ^6-thia-8-azaspiro[4.5]decane 2,2-dioxide] | – | – | – | 20 to 100 | 1 to 20 | 1 to 20 | 1 to 20 | 1 to 20
13 | Cc1cnnc(C)c1[C@@H](C)Oc1ccc2[nH]nc(-c3cnc(N4CC(O)C4)c(C#N)c3)c2c1 [Example 318, (R)-5-(5-(1-(3,5-dimethylpyridazin-4-yl)ethoxy)-1H-indazol-3-yl)-2-(3-hydroxyazetidin-1-yl)nicotinonitrile] | – | – | – | 100 to 300 | 1 to 20 | 20 to 100 | 1 to 20 | 100 to 300
14 | CCS(=O)(=O)N1CC2(CN(c3ccc(-c4n[nH]c5ccc(O[C@H](C)c6c(Cl)cnc(C)c6Cl)cc45)cn3)C2)C1 [Example 180, 5-[(1R)-1-(3,5-dichloro-2-methyl-4-pyridyl)ethoxy]-3-[6-(2-ethylsulfonyl-2,6-diazaspiro[3.3]heptan-6-yl)-3-pyridyl]-1H-indazole] | – | – | – | 20 to 100 | 1 to 20 | 1 to 20 | 20 to 100 | 20 to 100
15 | C[C@@H](Oc1ccc2[nH]nc(-c3cnc(N4CCC4)c(C#N)c3)c2c1)c1c(Cl)cnnc1Cl [Example 361, (R)-2-(azetidin-1-yl)-5-(5-(1-(3,5-dichloropyridazin-4-yl)ethoxy)-1H-indazol-3-yl)nicotinonitrile] | – | – | – | > 300 | 100 to 300 | 100 to 300 | 1 to 20 | 100 to 300
16 | C[C@@H](Oc1ccc2[nH]nc(-c3ccc(N4CCOCC4)cn3)c2c1)c1c(Cl)cncc1Cl [Example 103, 4-[6-[5-[(1R)-1-(3,5-dichloro-4-pyridyl)ethoxy]-1H-indazol-3-yl]-3-pyridyl]morpholine] | – | – | – | 1 to 20 | 1 to 20 | 1 to 20 | 1 to 20 | 20 to 100
17 | Cc1ncc(Cl)c([C@@H](C)Oc2ccc3[nH]nc(-c4ccc(N5CC6(CCC(O)C6)C5)nc4)c3c2)c1Cl (stereo partly drawn) [Example 247, 2-[5-[5-[(1R)-1-(3,5-dichloro-2-methyl-4-pyridyl)ethoxy]-1H-indazol-3-yl]-2-pyridyl]-2-azaspiro[3.4]octan-6-ol] | – | – | – | 20 to 100 | 1 to 20 | 1 to 20 | 1 to 20 | 20 to 100
